Experiments:
[1] = biological target: T1, human glucocorticoid receptor (hGR) (Homo sapiens, UniProt P04150); test: human glucocorticoid receptor binding assay (displacement of 3(H) Triamcinolone acetonide); details: for hGR, value given as %: concentration not given
T1 construct: made in house; host or cells: Sf21 insect cells infected with baculovirus hGR, OR IM9 lymphoblast cell line (endogenous hGR)
T1 sequence (P04150 1-777): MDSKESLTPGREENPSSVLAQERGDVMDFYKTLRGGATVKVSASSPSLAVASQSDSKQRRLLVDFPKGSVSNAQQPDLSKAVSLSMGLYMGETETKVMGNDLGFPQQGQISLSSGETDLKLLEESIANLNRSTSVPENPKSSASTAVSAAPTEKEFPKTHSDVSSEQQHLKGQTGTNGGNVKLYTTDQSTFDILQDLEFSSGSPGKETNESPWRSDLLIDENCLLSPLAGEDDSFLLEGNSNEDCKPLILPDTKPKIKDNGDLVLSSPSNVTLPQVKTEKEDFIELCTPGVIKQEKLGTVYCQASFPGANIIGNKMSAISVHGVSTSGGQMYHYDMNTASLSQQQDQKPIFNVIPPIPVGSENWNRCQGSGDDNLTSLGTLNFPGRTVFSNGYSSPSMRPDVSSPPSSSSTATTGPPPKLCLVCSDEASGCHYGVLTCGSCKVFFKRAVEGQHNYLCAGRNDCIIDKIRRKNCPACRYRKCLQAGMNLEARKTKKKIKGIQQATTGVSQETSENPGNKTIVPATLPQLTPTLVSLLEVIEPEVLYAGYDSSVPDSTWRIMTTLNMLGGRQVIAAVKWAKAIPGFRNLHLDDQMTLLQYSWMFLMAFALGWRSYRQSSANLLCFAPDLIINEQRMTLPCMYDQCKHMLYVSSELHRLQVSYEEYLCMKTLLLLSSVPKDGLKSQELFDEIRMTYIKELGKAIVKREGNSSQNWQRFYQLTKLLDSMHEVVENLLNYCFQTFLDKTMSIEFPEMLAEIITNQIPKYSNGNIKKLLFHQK
Method: A human glucocorticoid receptor binding assay was carried out to determine the extent to which the compounds of this invention have the ability to bind to human glucocorticoid receptors. This binding ability may be indicative of the antiinflammatory activity of the compound. The test was carried out as follows.
Human glucocorticoid receptors were prepared from either insect cells (Sf21) infected with baculovirus hGR or from a lymphoblast cell line which expresses high levels of endogenous hGR (IM9). The receptor binding reactions, with or without test compounds, were set up in 96-well microtiter plates which were previously siliconized with SIGMACOTE™, a chlorinated organopolysiloxane in heptane. The binding components, 3(H) Triamcinolone acetonide (TAA), glycerol/molybdate-containing buffer and unlabeled compounds were added to the wells using a combination of BIOMEK laboratory automation system and repeat pipettes. After four hours of incubation, the samples were precipitated with polyethylene glycol and filtered through Whatman GF/F paper using a TOMTEK cell harvester. The filter mate with 96 samples were bound to a solid-phase scintillant and directly counted in a BETAPLATE counter. […] The activity of test compounds to displace 3(H) TAA binding to hGR is also expressed as percent inhibition at 1 μM.

[2] = system: oxazolone-induced ear swelling (MOCH) in albino male CD-1 mice; test: mouse oxazolone-induced contact hypersensitization (MOCH) ear swelling; type: in vivo; parameters: % Inhibition MOCH: concentration or dose not given beside the values; details: for Oxazolone Ear Swelling (MOCH) % inhibition vs. Vehicle at 1 mg: topical to mouse ear, one hour after oxazolone challenge, ear biopsy weight at 24 hours; for topical antiinflammatory activity in the oxazolone model (in words): mouse ear; for % Inhibition MOCH: mouse, in vivo
Method: Several triphenylpropanamide compounds of this invention, having varying affinities for the human glucocorticoid receptor, were tested for topical antiinflammatory activity in mouse ear inflammation models. […] Compounds having receptor affinities closer to hydrocortisone were as nearly active as hydrocortisone in suppressing mouse oxazolone-induced contact hypersensitization (MOCH) and phorbol ester-induced ear edema. The in vivo studies of this example were conducted as follows.
In determining the MOCH using the compounds of this invention, albino male CD-1 mice, 7-9 weeks old were induced on the shaved abdomen with 50 μl of 3% oxazolone in acetone/corn oil (Day 0). On Day 5, a 20 μl volume of 2% oxazolone in acetone was applied to the dorsal left ear of the mouse . Compounds (made in ethanol/propylene glycol, 70:30) were applied to the left ear in 20 μl volume, one hour after oxazolone challenge. The right ear was not treated. The mice were sacrificed by carbon dioxide inhalation 24 hours after oxazolone challenge, the left and right ears were removed and a 7 mm biopsy was removed from each ear and weighed. The difference in biopsy weights between the right and left ears was calculated. Antiinflammatory effects of compounds were evident as an inhibition of the increase in ear weight.

Row | Compound | % Inhibition MOCH [2] | further results
1 | COc1ccccc1CC(=O)NCC(c1ccccc1)C(c1ccccc1)c1ccccc1 (stereo not shown) [Compound 5] |  | hGR, value given as % [1]: 62%; Oxazolone Ear Swelling (MOCH) % inhibition vs. Vehicle at 1 mg [2]: 13%
2 | O=C(Cc1ccccc1Cl)NCC(c1ccccc1)C(c1ccc(F)cc1)c1ccc(F)cc1 (stereo not shown) [Compound 16] |  | IC50 [1]: 45 nM; topical antiinflammatory activity in the oxazolone model (in words) [2]: moderate topical activity
3 | COc1ccccc1CCC(=O)NCC(c1ccccc1)C(c1ccc(F)cc1)c1ccc(F)cc1 (stereo not shown) [Compound 23] |  | IC50 [1]: 22 nM; topical antiinflammatory activity in the oxazolone model (in words) [2]: moderate topical activity
4 | O=C(Cc1ccccc1Cl)NCC(c1ccccc1)C1c2ccccc2-c2ccccc21 (stereo not shown) [Compound 68] |  | hGR, value given as % [1]: 46%; Oxazolone Ear Swelling (MOCH) % inhibition vs. Vehicle at 1 mg [2]: 28%
5 | O=C(Cc1ccccc1C(F)(F)F)NCC(c1ccccc1)C1c2ccccc2-c2ccccc21 (stereo not shown) [Compound 69] |  | hGR, value given as % [1]: 15%; Oxazolone Ear Swelling (MOCH) % inhibition vs. Vehicle at 1 mg [2]: 43%
6 | Cc1ccc(C(=O)NCC(c2ccccc2)C2c3ccccc3-c3ccccc32)s1 (stereo not shown) [Compound 72] |  | hGR, value given as % [1]: 33%; Oxazolone Ear Swelling (MOCH) % inhibition vs. Vehicle at 1 mg [2]: 50%
7 | O=C(Cc1ccc(Cl)cc1Cl)NCC(c1ccc2c(c1)OCO2)C(c1ccccc1)c1ccccc1 (stereo not shown) [Compound 112] | 36% | 
8 | O=C(Cc1ccc(Cl)c(Cl)c1)NCC(c1ccc2c(c1)OCO2)C(c1ccccc1)c1ccccc1 (stereo not shown) [Compound 113] | 31% | 
9 | O=C(CSc1ccccc1)NCC(c1ccc2c(c1)OCO2)C(c1ccccc1)c1ccccc1 (stereo not shown) [Compound 114] | 41% | 
10 | O=C(NCC(c1ccc2c(c1)OCO2)C(c1ccccc1)c1ccccc1)c1ccsc1 (stereo not shown) [Compound 115] | 28% | 
11 | O=C(NCC(c1ccc2c(c1)OCO2)C(c1ccccc1)c1ccccc1)c1cccs1 (stereo not shown) [Compound 116] | 62% | 
12 | O=C(NCC(c1ccc2c(c1)OCO2)C(c1ccccc1)c1ccccc1)c1ccccc1 (stereo not shown) [Compound 117] | 28% | 
13 | COc1ccccc1C(=O)NCC(c1ccc2c(c1)OCO2)C(c1ccccc1)c1ccccc1 (stereo not shown) [Compound 118] | 38% | 
14 | O=C(NCC(c1ccc2c(c1)OCO2)C(c1ccccc1)c1ccccc1)c1cc2ccccc2[nH]1 (stereo not shown) [Compound 119] | 31% | 
15 | O=C(NCC(c1ccc2c(c1)OCO2)C(c1ccccc1)c1ccccc1)c1cc(C(F)(F)F)cc(C(F)(F)F)c1 (stereo not shown) [Compound 120] | 27% | 
16 | O=C(NCC(c1ccc2c(c1)OCO2)C(c1ccccc1)c1ccccc1)c1cccc([N+](=O)[O-])c1 (stereo not shown) [Compound 121] | 10% | 
17 | Cc1ccc(C(=O)NCC(c2ccc3c(c2)OCO3)C(c2ccccc2)c2ccccc2)cc1[N+](=O)[O-] (stereo not shown) [Compound 122] | 33% | 
18 | N#Cc1cccc(C(=O)NCC(c2ccc3c(c2)OCO3)C(c2ccccc2)c2ccccc2)c1 (stereo not shown) [Compound 123] | 51% | 
19 | O=C(CCc1ccccc1)NCC(c1ccc2c(c1)OCO2)C(c1ccccc1)c1ccccc1 (stereo not shown) [Compound 124] | 35% | 
20 | CC(C)(C)c1ccc(C(=O)NCC(c2ccc3c(c2)OCO3)C(c2ccccc2)c2ccccc2)cc1 (stereo not shown) [Compound 125] | 31% | 
21 | Cc1ccc(C(=O)NCC(c2ccc3c(c2)OCO3)C(c2ccccc2)c2ccccc2)cc1 (stereo not shown) [Compound 126] | 46% | 
22 | O=C(NCC(c1ccc2c(c1)OCO2)C(c1ccccc1)c1ccccc1)c1ccc(F)cc1F (stereo not shown) [Compound 127] | 61% | 

Row | Compound | % Inhibition MOCH [2] | further results
23 | O=C(NCC(c1ccc2c(c1)OCO2)C(c1ccccc1)c1ccccc1)c1ccc(F)cc1 (stereo not shown) [Compound 128] | 54% | 
24 | O=C(NCC(c1ccc2c(c1)OCO2)C(c1ccccc1)c1ccccc1)c1ccccc1Cl (stereo not shown) [Compound 129] | 41% | 
25 | O=C(NCC(c1ccc2c(c1)OCO2)C(c1ccccc1)c1ccccc1)c1ccc(Cl)cc1 (stereo not shown) [Compound 130] | 37% | 
26 | O=C(NCC(c1ccc2c(c1)OCO2)C(c1ccccc1)c1ccccc1)c1cc(Cl)cc(Cl)c1 (stereo not shown) [Compound 131] | 18% | 
27 | Cc1ccccc1C(=O)NCC(c1ccc2c(c1)OCO2)C(c1ccccc1)c1ccccc1 (stereo not shown) [Compound 133] | 46% | 
28 | O=C(Cc1ccc(-c2ccccc2)cc1)NCC(c1ccc2c(c1)OCO2)C(c1ccccc1)c1ccccc1 (stereo not shown) [Compound 134] | 29% | 
29 | O=C(Cc1cccs1)NCC(c1ccc(C(F)(F)F)cc1)C(c1ccccc1)c1ccccc1 (stereo not shown) [Compound 135] | 31% | 
30 | O=C(NCC(c1ccc(C(F)(F)F)cc1)C(c1ccccc1)c1ccccc1)c1cccs1 (stereo not shown) [Compound 136] | 38% | 
31 | O=C(NCC(c1ccc(C(F)(F)F)cc1)C(c1ccccc1)c1ccccc1)c1ccccc1Cl (stereo not shown) [Compound 137] | 45% | 
32 | O=C(Cc1ccc(Cl)c(Cl)c1)NCC(c1ccc(C(F)(F)F)cc1)C(c1ccccc1)c1ccccc1 (stereo not shown) [Compound 138] | 33% | 
33 | O=C(NCC(c1ccc(C(F)(F)F)cc1)C(c1ccccc1)c1ccccc1)c1ccc(Cl)cc1Cl (stereo not shown) [Compound 139] | 42% | 
34 | Cc1cccc(CC(=O)NCC(c2ccc(C(F)(F)F)cc2)C(c2ccccc2)c2ccccc2)c1 (stereo not shown) [Compound 140] | 57% | 
35 | O=C(Cc1ccccc1)NCC(c1ccc(C(F)(F)F)cc1)C(c1ccccc1)c1ccccc1 (stereo not shown) [Compound 141] | 66% | 
36 | O=C(Cc1ccccn1)NCC(c1ccc(C(F)(F)F)cc1)C(c1ccccc1)c1ccccc1 (stereo not shown) [Compound 142] | 39% | 
37 | CSc1ccc(CC(=O)NCC(c2ccc(C(F)(F)F)cc2)C(c2ccccc2)c2ccccc2)cc1 (stereo not shown) [Compound 143] | 19% | 
38 | COc1cc(Cl)ccc1C(=O)NCC(c1ccc(C(F)(F)F)cc1)C(c1ccccc1)c1ccccc1 (stereo not shown) [Compound 144] | 33% | 
39 | O=C(Cc1cc2cc(Cl)ccc2s1)NCC(c1ccc(C(F)(F)F)cc1)C(c1ccccc1)c1ccccc1 (stereo not shown) [Compound 145] | 54% | 
40 | O=C(Cc1ccccc1Cl)NCC(c1ccc(C(F)(F)F)cc1)C(c1ccccc1)c1ccccc1 (stereo not shown) [Compound 146] | 39% | 
41 | O=C(Cc1ccc(F)cc1F)NCC(c1ccc(C(F)(F)F)cc1)C(c1ccccc1)c1ccccc1 (stereo not shown) [Compound 147] | 55% | 
42 | COc1ccccc1CC(=O)NCC(c1ccc(C(F)(F)F)cc1)C(c1ccccc1)c1ccccc1 (stereo not shown) [Compound 148] | 42% | 
43 | COc1cc(CC(=O)NCC(c2ccc(C(F)(F)F)cc2)C(c2ccccc2)c2ccccc2)cc(OC)c1 (stereo not shown) [Compound 149] | 42% | 

Source: US6509369B2, “Anti-inflammatory compounds” (Ortho-McNeil Pharmaceutical, Inc., priority 1997, dated 2003)
